Our source for the EC50 values is patent US20100022542A1, “COMPOUNDS EXHIBITING THROMBOPOIETIN RECEPTOR AGONISM” (Shionogi & Co., Ltd., priority 2000, published 2010).

The target in the test is T1, human TPO receptor (hTPOR) (Homo sapiens, UniProt P40238).
T1 construct: expressed in transfected cells; host or cells: BaF-B03 (murine IL-3 dependent cell line)
T1 sequence (P40238 26-635): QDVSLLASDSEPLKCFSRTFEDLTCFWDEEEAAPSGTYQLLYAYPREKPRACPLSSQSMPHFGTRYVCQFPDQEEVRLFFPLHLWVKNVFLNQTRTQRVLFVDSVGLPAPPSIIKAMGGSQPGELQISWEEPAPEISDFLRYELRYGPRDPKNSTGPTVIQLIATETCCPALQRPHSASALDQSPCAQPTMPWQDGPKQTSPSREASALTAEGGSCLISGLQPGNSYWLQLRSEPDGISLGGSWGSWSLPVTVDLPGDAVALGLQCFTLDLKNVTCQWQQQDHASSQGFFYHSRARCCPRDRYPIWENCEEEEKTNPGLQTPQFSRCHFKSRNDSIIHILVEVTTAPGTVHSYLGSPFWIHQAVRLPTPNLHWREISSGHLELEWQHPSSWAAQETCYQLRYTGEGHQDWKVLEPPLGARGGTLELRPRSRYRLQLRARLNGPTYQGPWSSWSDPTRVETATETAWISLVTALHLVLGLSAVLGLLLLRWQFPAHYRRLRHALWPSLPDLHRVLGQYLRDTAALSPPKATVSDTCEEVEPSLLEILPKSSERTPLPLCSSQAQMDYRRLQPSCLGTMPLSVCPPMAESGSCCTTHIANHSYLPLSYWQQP
The test can be described thus: Proliferation of TPO dependent BaF/hTPOR cells, WST-1, thrombopoietic activity ED50 (Test Example 3). In kind it is cell-based. As to conditions: 20 h incubation then WST-1 4 h, absorbance at 450 nm. The source says:
FIG. 2: The chart represents proliferation of the human TPO dependent cells bearing human TPO receptors by the present invention compound, wherein the x-axis is concentration of the present invention compound, and the y-axis is the absorbance as an indicator of cell proliferation. Open circles indicate a response of human TPO, and closed circles indicate a response of the compound (B-1).
The TPO dependent BaF/hTPOR cell line which was established by introducing human TPO receptor (hTPOR) into BaF-B03 cells according to Collins et al (J. Cell. Physiol., 137:293-298 (1988)) was used to test the thrombopoietic activity of the present compound. The DNA sequences and encoded peptide sequences for human hTPOR have been described by Vigon et al (Proc. Natl. Acad. Sci. USA, 89:5640-5644 (1992)). TPO dose not have any ability to support proliferation of interleukin-3 dependent parental cell line BaF-B03. BAF/hTPOR cells were maintained in RPMI medium and WEHI-3B conditioned medium as a source of murine interleukin-3 (IL-3). These cells were washed and resuspended in RPMI medium without a source of murine IL-3 and seeded into each well of 96-well microtiter plates at a density of 5×10^4 cells per well in the absence or presence of various concentration of hTPO or the present compound. After incubation at 37° C. for 20 hours in the 5% CO2 incubator, 10% WST-1 reagent (Takara Biomedicals, Japan) was added to each wells and the cells were further incubated for 4 hours. Effect of the present compound on the growth of BAF/mTPOR cell line which was established by introducing murine TPO receptor (mTPOR) into BAF-B03 cells is shown in FIG. 3. Table 8 exemplifies the ED50 for tested compounds of the present invention, wherein the ED50 is the half concentration of the concentration showing the maximum thrombopoietic activity.

What is called EC50 is the concentration giving half of the maximal effect. Take `C=CCNC(=O)/C(C)=C/c1ccc(C(=O)Nc2nc(-c3ccc(Cl)c(Cl)c3)cs2)cc1` [Compound B-41]: the EC50 stood at 190 nM.
The same measure for `COCCNC(=O)/C(C)=C/c1ccc(C(=O)Nc2nc(-c3ccc(Cl)c(Cl)c3)cs2)cc1` [Compound B-42]: 236 nM; for `CC(=O)NNC(=O)/C(C)=C/c1ccc(C(=O)Nc2nc(-c3ccc(Cl)c(Cl)c3)cs2)cc1` [Compound B-43]: 303 nM; for `CONC(=O)/C(C)=C/c1ccc(C(=O)Nc2nc(-c3ccc(Cl)c(Cl)c3)cs2)cc1` [Compound B-46]: 213 nM.
Regarding `O=C(O)C(Br)=Cc1ccc(C(=O)Nc2nc(-c3ccc(Cl)c(Cl)c3)cs2)cc1` [Compound C-4], the response was half-maximal at 922 nM (EC50).
In turn, `CC(=Cc1ccc(C(=O)Nc2nc(-c3ccc(Cl)c(Cl)c3)cs2)cc1)c1ncc[nH]1` [Compound D-1] displayed an EC50 of 276 nM.
For `CC(=Cc1ccc(C(=O)Nc2nc(-c3ccc(Cl)c(Cl)c3)cs2)cc1)S(=O)(=O)N(C)C` [Compound F-1] the value was 174 nM.
Take `CC(=Cc1ccc(C(=O)Nc2nc(-c3ccc(Cl)c(Cl)c3)cs2)cc1)S(=O)(=O)NC(C)(C)C` [Compound F-2]: a half-maximal effect (EC50) was put at 144 nM.
Regarding `CC(=Cc1ccc(C(=O)Nc2nc(-c3ccc(Cl)c(Cl)c3)cs2)cc1)S(N)(=O)=O` [Compound F-3], the midpoint of the response, the EC50, lay at 198 nM.
For `COC(=O)CCc1ccc(C(=O)Nc2nc(-c3ccc(Cl)c(Cl)c3)cs2)cc1` [Compound G-1] the value was 261 nM; for `O=C(O)CCc1ccc(C(=O)Nc2nc(-c3ccc(Cl)c(Cl)c3)cs2)cc1` [Compound G-2], 299 nM.
For `CC(Cc1ccc(C(=O)Nc2nc(-c3ccc(Cl)c(Cl)c3)cs2)cc1)C(=O)O` (centres unmarked) [Compound G-3], the EC50 was found to be 430 nM.
Turning to `O=C(Nc1nc(-c2ccc(Cl)c(Cl)c2)cs1)c1ccc(CC(Cl)C(=O)O)cc1` (centres unmarked) [Compound G-4], the half-maximal effective concentration (EC50) was determined as 240 nM.
`COC(=O)C(Cl)Cc1ccc(C(=O)Nc2nc(-c3ccc(Cl)c(Cl)c3)cs2)cc1` (centres unmarked) [Compound G-5] came in with an EC50 of 260 nM.
`O=C(Nc1nc(-c2ccc(Cl)c(Cl)c2)cs1)c1ccc(CC(F)C(=O)O)cc1` (centres unmarked) [Compound G-6]: the EC50 turned out to be 370 nM.
On to `CCOC(=O)C(F)Cc1ccc(C(=O)Nc2nc(-c3ccc(Cl)c(Cl)c3)cs2)cc1` (centres unmarked) [Compound G-7], for which the concentration giving a half-maximal response (EC50) was determined as 400 nM.
The same measure for `CC(c1ccc(C(=O)Nc2nc(-c3ccc(Cl)c(Cl)c3)cs2)cc1)C(Cl)C(=O)O` (centres unmarked) [Compound G-8]: 360 nM.
The compound `Cc1sc(NC(=O)c2ccc(/C=C(\Cl)C(=O)O)cc2)nc1-c1ccc(F)cc1F` [Compound J-11] came in with an EC50 of 311 nM.
In turn, `Cc1sc(NC(=O)c2ccc(/C=C(\Cl)C(=O)O)cc2)nc1-c1cccc(C(F)(F)F)c1F` [Compound J-12] showed an EC50 of 107 nM.
`Cc1sc(NC(=O)c2ccc(/C=C(\Cl)C(=O)O)cc2)nc1-c1cccc(Br)c1` [Compound J-13] displayed an EC50 of 116 nM.
On to `Cc1sc(NC(=O)c2ccc(/C=C(\Cl)C(=O)O)cc2)nc1-c1cccc(C(F)(F)F)c1` [Compound J-14], for which the EC50 came out at 36 nM.
`CCCCCc1cccc2c1CCc1sc(NC(=O)c3ccc(/C=C(\Cl)C(=O)O)cc3)nc1-2` [Compound J-15] gave an EC50 of 11 nM.
`COC(=O)C#Cc1ccc(C(=O)Nc2nc(-c3ccc(Cl)c(Cl)c3)cs2)cc1` [Compound L-1] gave an EC50 of 208 nM.
As for `O=C(O)C#Cc1ccc(C(=O)Nc2nc(-c3ccc(Cl)c(Cl)c3)cs2)cc1` [Compound L-2], the EC50 amounted to 143 nM.
Consider `COC(=O)C#Cc1ccc(C(=O)Nc2nc(-c3ccc(Cl)c(Cl)c3)cs2)cc1OC` [Compound L-3], for which a half-maximal effect (EC50) was put at 321 nM.
Regarding `COc1cc(C(=O)Nc2nc(-c3ccc(Cl)c(Cl)c3)cs2)ccc1C#CC(=O)O` [Compound L-4], the EC50 is 256 nM.
